US5336485A, “Method for protecting animals against tacrine induced cytotoxic injury using sterol compounds” (priority 1993, dated 1994)
Counter-ions that a name gives are not always drawn.

Key:
male Sprague-Dawley rats = test: CCl4 induced lethality in rats; type: in vivo, rat; conditions: for Survival after CCl4 treatment: 100 mg/kg ip 24 h prior, […] CCl4 oral
liver [1] = test: CCl4 induced hepatotoxicity in rats (serum AST/ALT); type: in vivo, rat
Method in brief: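 Male Sprague-Dawley rats received test compounds i.p. at 100 mg/kg 20–24 h before oral CCl4 (2.9 g/kg or 1 g/kg). Serum AST and ALT were measured 48 h after CCl4 challenge.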

liver [2] = test: Acetaminophen-induced hepatotoxicity in rats (AST/ALT); type: in vivo, rat
Experimental: In vivo experiments were performed to determine if alpha-TS administration protects the liver from the hepatotoxic effects of acetaminophen. Acetaminophen is a commonly used analgesic that is metabolized to a reactive intermediate. […] The other group of male Sprague-Dawley rats received only the acetaminophen challenge. Forty eight hours after the challenge the rats were sacrificed and the levels of aspartate aminotransferase (AST) and alanine aminotransferase (ALT) were measured.
FIGS. 10 and 11 show the results of in vivo experiments where male Sprague-Dawley rats were given an oral dose of 15 or 30 mg THA/kg body weight, respectively. In the experiments, one group of rats was provided with an i.p. dose of 100 mg cholesteryl succinate tris salt/kg body weight 20 hours prior to the THA challenge, another group of rats only received the THA challenge, and the last group of rats acted as a control and were not challenged. The serum AST levels were determined with respect to time after the THA challenge.

[3] = test system: L1210 murine leukemia cells; test: Inhibition of L1210 leukemia cell growth in vitro; type: cell-based, mouse
Experimental: Similar in vitro experiments were conducted with cholesteryl succinate tris salt and alpha-TS tris salt.

CDF1 mice = test: Doxorubicin lethality in CDF1 mice (normal tissue); type: in vivo, mouse; conditions: 100 mg/kg ip 20 h prior, DOX 10, 15, 20, 25 mg/kg
Experimental: The experiments were conducted in accordance with NCI Protocol 1,100. FIGS. 8a-d show the experimental results obtained when male CDF1 mice (n=6) received either vehicle only or 100mg/kg body weight i.p. dose of either alpha-TS or cholesteryl succinate 20 hours prior to DOX administration. FIGS. 8a-d respectively show the results obtained when the mice received 10, 15, 20, and 25 mg DOX/kg body weight. […] FIGS. 9a-d show the experimental results obtained when male CDF1 mice ([…]) were injected (i.p.) with 10^6 murine L1210 leukemia cells followed immediately by an injection of alpha-TS tris salt (100 mg/kg, i.p.) or saline injection (vehicle), and twenty hours later (Day=0) each mouse in three of the groups was i.p. injected with 15, 20, or 25 mg DOX/kg body weight ([…]). Survival was monitored for twenty days.

variety of cell types = conditions: cited from earlier work
[4] = 50 mg/kg ip, 48 h after 1 g/kg CCl4 (Table 28)
[5] = 100 mg/kg ip 20 h prior, 48 h after 1 g/kg CCl4 (Table 20)
[6] = 100 mg/kg ip (dihydrocholesterol 80 + sodium sulfate 30 mg/kg), 48 h after 1 g/kg CCl4 (Table 35)
[7] = 100 mg/kg ip, 30 min after CCl4 1 g/kg (Table 29)
[8] = 100 mg/kg ip, 30 min prior to CCl4 1 g/kg (Table 29)
[9] = 100 mg/kg ip, 20 hours prior to CCl4 1 g/kg (Table 29)
[10] = 100 mg/kg ip, 48 h after 1 g/kg CCl4 (Table 28)
[11] = 100 mg/kg ip, 48 h after 1 g/kg CCl4 (Table 31)
[12] = 100 mg/kg ip, 48 h after 1 g/kg CCl4 (Table 37)
[13] = 100 mg/kg ip, 48 h after 1 g/kg CCl4 (Table 40)
[14] = 100 mg/kg ip, PEG 400 vehicle, 48 h after 1 g/kg CCl4 (Table 34)
[15] = 100 mg/kg ip, immediately prior to CCl4 1 g/kg (Table 29)
[16] = 100 mg/kg oral 20 h prior, 48 h after 1 g/kg CCl4 (Table 20)
[17] = 200 mg/kg ip, 48 h after 1 g/kg CCl4 (Table 28)
[18] = PEG 400 vehicle, ip 20 h prior, 24 hrs after 2 g/kg CCl4 (Table 32)
[19] = PEG 400 vehicle, ip 20 h prior, 48 hrs after 2 g/kg CCl4 (Table 32)
[20] = PEG 400 vehicle, ip 20 h prior, 72 hrs after 2 g/kg CCl4 (Table 32)
[21] = 100 mg/kg ip 20 hrs prior, 48 h after 2 g/kg AP (Table 23)
[22] = 100 mg/kg ip 20 h prior, 48 h after 1 g/kg CCl4 (Table 27), listed as Alpha Tocopheryl Succinate free acid
[23] = rat plasma, 100 mg/kg ip 24 h prior, 48 h after […] CCl4
[24] = 100 mg/kg ip 24 h prior, acetaminophen 2.5 g/kg

SMILES: CC(C)CCC[C@@H](C)[C@H]1CC[C@H]2[C@@H]3CC=C4C[C@@H](OC(=O)CCC(=O)O)CC[C@]4(C)[C@H]3CC[C@]12C [Cholesteryl Succinate tris salt]
- Survival after CCl4 treatment (male Sprague-Dawley rats): Yes
- ALT (liver [1]; [4]): 0.16 ± 0.11 10^3 units/L
- AST (liver [1]; [4]): 0.56 ± 0.35 10^3 units/L
- Serum AST Levels (liver [1]; 100 mg/kg ip 20 h prior, 24 hrs after 2 g/kg CCl4 (Table 26), tris salt): 0.57 ± 0.38 10^3 units/L
- ALT (liver [1]; [5]): 0.122 ± 0.034 10^3 units/L
- AST (liver [1]; [5]): 0.41 ± 0.08 10^3 units/L
- Serum AST Levels (liver [1]; 100 mg/kg ip 20 h prior, 48 hrs after 2 g/kg CCl4 (Table 26), tris salt): 0.19 ± 0.07 10^3 units/L
- ALT (liver [1]; [6]): 0.04 ± 0.02 10^3 units/L
- AST (liver [1]; [6]): 0.22 ± 0.06 10^3 units/L
- ALT (liver [1]; [7]): 1.50 ± 0.79 10^3 units/L
- AST (liver [1]; [7]): 7.87 ± 4.09 10^3 units/L
- ALT (liver [1]; [8]): 2.12 ± 1.43 10^3 units/L
- AST (liver [1]; [8]): 9.09 ± 4.38 10^3 units/L
- ALT (liver [1]; [9]): 0.04 ± 0.01 10^3 units/L
- AST (liver [1]; [9]): 0.12 ± 0.02 10^3 units/L
- ALT (liver [1]; [10]): 0.04 ± 0.02 10^3 units/L
- AST (liver [1]; [10]): 0.22 ± 0.06 10^3 units/L
- ALT (liver [1]; [11]): 0.02 ± 0 10^3 units/L
- AST (liver [1]; [11]): 0.10 ± 0.03 10^3 units/L
- ALT (liver [1]; [12]): 0.09 ± 0.01 10^3 units/L
- AST (liver [1]; [12]): 0.21 ± 0.03 10^3 units/L
- ALT (liver [1]; [13]): 0.04 ± 0.01 10^3 units/L
- AST (liver [1]; [13]): 0.12 ± 0.02 10^3 units/L
- ALT (liver [1]; [14]): 0.07 ± 0.03 10^3 units/L
- AST (liver [1]; [14]): 0.29 ± 0.22 10^3 units/L
- ALT (liver [1]; [15]): 1.12 ± 1.38 10^3 units/L
- AST (liver [1]; [15]): 6.69 ± 1.87 10^3 units/L
- SGOT Levels (liver [1]; 100 mg/kg ip, 48 h after 1.0 g/kg CCl4): 0.10 ± 0.03 10^3 units/L
- ALT (liver [1]; [16]): 4.09 ± 1.191 10^3 units/L
- AST (liver [1]; [16]): 12.51 ± 41.31 10^3 units/L
- ALT (liver [1]; [17]): 0.03 ± 0.01 10^3 units/L
- AST (liver [1]; [17]): 0.16 ± 0.08 10^3 units/L
- Serum AST Levels (liver [1]; [18]): .19 ± .10 10^3 units/L
- Serum AST Levels (liver [1]; [19]): .10 ± .02 10^3 units/L
- Serum AST Levels (liver [1]; [20]): .10 ± .02 10^3 units/L
- inhibition in vivo at 100 mg/kg (liver [1]; Rattus norvegicus, ip, 48 h, read-out: % Hepatoprotection): 100%
- protection against CCl4 hepatotoxicity (in words) (liver [1]; rats, serum enzyme levels): complete protection
- Serum ALT Level (liver [2]; [21]): 158 ± 77 Units/L
- Serum AST Level (liver [2]; [21]): 785 ± 495 Units/L
- growth rate of L1210 cells (FIG. 7) [3]: significantly suppress the growth rate of L1210 cells

SMILES: Cc1c(C)c2c(c(C)c1OC(=O)CCC(=O)O)CC[C@@](C)(CCC[C@H](C)CCC[C@H](C)CCCC(C)C)O2 [alpha-TS, d-alpha-tocopheryl succinate]
- Survival after CCl4 treatment (male Sprague-Dawley rats): Yes
- Protection from CCl4 (male Sprague-Dawley rats; 100 mg/kg ip (Table 5)): Yes
- Days Survived after CCl4 (male Sprague-Dawley rats; 100 mg/kg ip, 1 hour after CCl4 and daily thereafter): 2 days
- Days Survived after CCl4 (male Sprague-Dawley rats; 100 mg/kg ip, 1 hour prior and daily thereafter): > 7 days
- Days Survived After CCl4 Treatment (male Sprague-Dawley rats; 100 mg/kg ip, 24 h prior, CCl4 3.8 g/kg): > 7 days
- Days Survived After CCl4 Treatment (male Sprague-Dawley rats; 100 mg/kg ip, 24 h prior, CCl4 5.0 g/kg): 2 days
- Days Survived After CCl4 Treatment (male Sprague-Dawley rats; 100 mg/kg ip, 24 h prior, CCl4 […]): > 7 days
- Days Survived after CCl4 (male Sprague-Dawley rats; 100 mg/kg ip, single dose 24 h prior to CCl4 […]): > 7 days
- cytoprotection against CCl4 lethality (male Sprague-Dawley rats; 100 mg/kg oral): not observed
- Protection from CCl4 (male Sprague-Dawley rats; 100 mg/kg oral (Table 5)): No
- Days Survived After CCl4 Treatment (male Sprague-Dawley rats; 100 mg/kg oral, 24 h prior, CCl4 2.2 g/kg): > 7 days
- Days Survived After CCl4 Treatment (male Sprague-Dawley rats; 100 mg/kg oral, 24 h prior, CCl4 3.8 g/kg): 2 days
- Days Survived After CCl4 Treatment (male Sprague-Dawley rats; 100 mg/kg oral, 24 h prior, CCl4 5.0 g/kg): 2 days
- Days Survived After CCl4 Treatment (male Sprague-Dawley rats; 100 mg/kg oral, 24 h prior, CCl4 […]): 3 days
- Days Survived After CCl4 Treatment (male Sprague-Dawley rats; 25 m/kg, single dose 24 h prior): > 7 days
- incubation time required for cytoprotection (male Sprague-Dawley rats; single dose): greater than 12 hours
- ALT (liver [1]; [22]): 1.08 ± 0.23 10^3 units/L
- AST (liver [1]; [22]): 2.06 ± 0.53 10^3 units/L
- Serum AST Levels (liver [1]; [18]): .38 ± .15 10^3 units/L
- Serum AST Levels (liver [1]; [19]): .39 ± .22 10^3 units/L
- Serum AST Levels (liver [1]; [20]): .14 ± .06 10^3 units/L
- ALT (liver [1]; [23]): 631 ± 17 Units/L
- AST (liver [1]; [23]): 3,430 ± 1500 Units/L
- ALT (liver [2]; [24]): 432 ± 188 Units/L
- AST (liver [2]; [24]): 1,659 ± 607 Units/L
- minimal effective concentration ([3]; Mus musculus, L1210, free acid, 72 hours, read-out: concentration that significantly suppresses growth rate of L1210 cells): > 100 µM
- survival after DOX, normal mice (FIGS. 8a-d) (CDF1 mice): survived significantly longer
- protection against carcinogenic effects of radiation and cancer causing chemicals (variety of cell types): protects a variety of cell types against the carcinogenic effects of radiation and cancer causing chemicals
